Results taken from patent US9759730B2, “Method and device for the determination of platelet function under flow conditions” (SIEMENS HEALTHCARE DIAGNOSTICS PRODUCTS GMBH, priority 2006, dated 2017).
Where two headings read alike, the source gives them in different places.

Legend:
[1] = system: platelet function in whole blood; test: Closure time under flow conditions, conventional Col/Epi PFA-100 test cartridge, citrated whole blood treated in vitro; assay type: cell-based, human; conditions: cut-off 158 seconds, MRS 2395 100 μmol/L; for Number of samples with closure times above cut-off (n = 11): ASA 30 μmol/L, citrated whole blood of 11 healthy donors
[2] = system: platelet function in whole blood; test: Closure time under flow conditions, ADP/PGE1 test cartridge without calcium in PFA-100, PPACK whole blood treated in vitro; assay type: cell-based, human; conditions: cut-off 90 seconds, MRS 2395 150 μmol/L, ASA 30 μmol/L, MRS 2179 75 μmol/L; for Number of samples with closure times above cut-off (n = 10): ADP/PGE1 cartridge without calcium, PPACK whole blood of 10 healthy donors; for closure time relative to cut-off (FIG. 3, mean values): ADP/PGE1 cartridge, PPACK blood, 10 donors
Protocol: Venous blood was taken from 10 healthy donors and anticoagulated with 75 μM PPACK.
(§1) Aliquots of the whole blood samples were treated in vitro with the P2Y(12) antagonist MRS 2395 (Sigma-Aldrich Chemie GmbH, Steinheim, Germany). For this purpose an ethanolic MRS 2395 stock solution (15 mg/mL) was mixed with the whole blood samples so that an end concentration of 150 μmol/L was obtained.
Further aliquots of the whole blood samples were treated in vitro with the COX-1 inhibitor acetylsalicylic acid (abbr. ASA; Sigma-Aldrich Chemie GmbH, Steinheim, Germany). For this purpose an aqueous ASA stock solution (1 mg/mL) was mixed with the whole blood samples so that an end concentration of 30 μmol/L was obtained.
as §1, with “Further aliquots” for “Aliquots”, “P2Y(1)” for “P2Y(12)”, “2179” for “2395”, “aqueous” for “ethanolic”, “(1 mg/ml)” for “(15 mg/mL)”, “75” for “150”
(§2) After addition of the reagents the blood samples were incubated at room temperature for 5 minutes.
For the determination of the closure time as a measure of the platelet function the whole blood samples described under Example 4a) were investigated with the aid of a ADP/PGE1 test cartridge according to the invention in a PFA-100® apparatus (Platelet Function Analyzer-100, Dade Behring Marburg GmbH, Marburg, Germany). The ADP/PGE1 test cartridge according to the invention used was prepared essentially as described in Example 1 but without the partition member having been treated with CaCl2.2H2O. The test cartridge thus comprised 7 μg ADP and 5 ng PGE1 but no calcium ions.
700 μL of a blood sample was added to the reservoir of the temperature equilibrated test cartridge (+37° C.) and incubated at +37° C. in the apparatus for 3 minutes. Next a partial vacuum of −40 mbar was applied by the apparatus when the blood was sucked through a capillary (diameter 200 μm) from the reservoir and finally through an opening (aperture) of the partition member in the measurement chamber. The time that was required up to the closure of the aperture by formation of a blood clot was determined as closure time. Every sample investigated was determined in duplicate and the mean value of a duplicate determination was used as the measurement value.
Owing to the use of PPACK as anticoagulant the cut-off determined with citrated whole blood in the above-described examples cannot be used. Therefore, the reference range for the ADP/PGE1 closure time from the 10 samples of the healthy donors treated with PPACK was calculated by the determination of the 90% central interval of the normal distribution of the mean values of the duplicate determinations. This gave the following reference ranges for the closure times:
The upper limit of the 90% central interval was defined as cut-off, i.e. as threshold value for a platelet dysfunction.

[3] = system: platelet function in whole blood; test: Closure time under flow conditions, ADP/PGE1/calcium test cartridge in PFA-100, citrated whole blood treated in vitro; assay type: cell-based, human; conditions: cut-off 81 seconds, MRS 2395 100 μmol/L; for Number of samples with closure times above cut-off (n = 11): ASA 30 μmol/L, citrated whole blood of 11 healthy donors
Protocol: For the preparation of a partition member for a test cartridge according to the invention a polyether sulfone filter membrane (Supor® membrane, Pall GmbH, Dreieich, Germany) was cut into strips. 1 μL of a solution comprising 7 μg/μL ADP (adenosine-5′-diphosphate potassium salt.2H2O, Sigma-Aldrich Chemie GmbH, Steinheim, Germany) and 5 ng/μL PGE1 (prostaglandin E1, Sigma-Aldrich Chemie GmbH, Steinheim, Germany) and 367.5 μg/μL CaCl2.2H2O (equivalent to 100 μg/μL Ca^2+ ions) were pipetted punctiform onto the membrane and the membrane was dried. Next a circular opening (aperture) with a diameter of 100 μm was punched out of the middle of the region of the membrane treated with the reagents. The membrane thus prepared was used as partition member in the measurement chamber of a PFA-100® test cartridge (Dade Behring Marburg GmbH, Marburg, Germany).
(§3) Venous blood was taken from 11 healthy donors and anticoagulated with sodium citrate (3.2% buffered Na citrate).
(§4) Aliquots of the citrated whole blood sample were treated in vitro with the P2Y(12) antagonist MRS 2395 (Sigma-Aldrich Chemie GmbH, Steinheim, Germany). For this purpose an ethanolic MRS 2395 stock solution (15 mg/mL) was mixed with the whole blood samples so that an end concentration of 100 μmol/L was obtained.
Further aliquots of the citrated whole blood samples were treated in vitro with the COX-1 inhibitor acetylsalicylic acid (abbr.: ASA; Sigma-Aldrich Chemie GmbH, Steinheim, Germany). […]
To determine the closure time as a measure of platelet function the whole blood samples described under Example 2a) were investigated with the aid of the ADP/PGE1/calcium test cartridge according to the invention described in Example 1 in a PFA-100® apparatus (Platelet Function Analyzer-100, Dade Behring Marburg GmbH, Marburg, Germany). […] The time required up to the closure of the aperture by formation of a blood clot was determined as closure time. Every sample investigated was determined in duplicate and the mean value of a duplicate determination was used as the measurement value.
Venous blood was taken from healthy donors and anticoagulated with sodium citrate (3.2% buffered Na citrate). […] Samples from 186 donors were determined in duplicate with a Col/Epi PFA-100® test cartridge [see Example 2c)]. Samples from 159 donors were determined in duplicate with an ADP/PGE1/calcium test cartridge according to the invention [see Examples 1 and 2c)].
The reference ranges (normal range) for the Col/Epi closure time and the ADP/PGE1 closure time were established in that the measurement value ranges in which 90% of the measurement values found for the healthy subjects lay were determined (90% central interval of the normal distribution of all measurements). […]

[4] = system: platelet aggregation in platelet rich plasma; test: ADP-induced light transmission aggregometry (according to Born), in vitro treated samples, 2 μM ADP; assay type: cell-based, human; conditions: MRS 2395 100 μmol/L in citrated blood, 5 min room temperature, PRP, 11 healthy donors
Protocol: as §3, §4, §2
In order to check whether the samples treated with MRS 2395 actually show a reduced platelet aggregation, platelet rich (PRP) and platelet poor (PPP) plasma was prepared from aliquots of the untreated and MRS 2395-treated whole blood samples described under Example 2a), and the samples were then treated with 2 μM ADP. The PPP samples were used as blank controls. The photometric measurement of the aggregation reaction was carried out in the automated coagulation apparatus BCT® (Dade Behring Marburg GmbH, Marburg, Germany) under continuous stirring (600 rpm). The platelet aggregation of the samples treated with MRS 2395 was reduced by a mean of 27% compared with the platelet aggregation of the untreated samples.

[5] = system: platelet function in whole blood; conditions: Method 2 ADP cartridge without PGE1; 13 patients on 75 mg clopidogrel daily
Text: The samples were investigated with the aid of different methods to determine platelet function. • 1. according to the invention under flow conditions and use of an ADP/PGE1/calcium PFA-100® test cartridge (see Examples 1 and 2c), cut-off: >81 seconds; • 2. under flow conditions and use of a PFA-100® test cartridge that differed from the test cartridge according to the invention in accordance with Example 1 in that it comprised no PGE1, cut-off: >78 seconds; • 3. with ADP-induced light transmission aggregometry (according to Born) with addition of 2 μM ADP (see Example 2b), cut-off: <40% light transmission at end of test; • 4. with ADP-induced light transmission aggregometry (according to Born) with the addition of 5 μM ADP (see example 2b), cut-off: <40% light transmission at end of test. This method is recommended by Sanofi-Aventis, the manufacturer of the clopidogrel preparation Plavix®, for the determination of the antithrombotic effect of the medicament.
The cut-offs for the individual test procedures were determined by preliminary investigations with whole blood and plasma samples of normal donors.
“+” means an antithrombotic effect could be detected. “−” means no antithrombotic effect could be detected. “0” means that the duplicate determination gave contradictory results, i.e. one value above and one value below the cut-off.

platelet aggregation [6] = conditions: Method 3 aggregometry 2 μM ADP; 13 patients on 75 mg clopidogrel daily
[7] = system: platelet function in whole blood; conditions: Method 1 ADP/PGE1/calcium cartridge; 13 patients on 75 mg clopidogrel daily
platelet aggregation [8] = conditions: Method 4 aggregometry 5 μM ADP; 13 patients on 75 mg clopidogrel daily

| SMILES | Number of samples with closure times above cut-off (n = 11) [1] | Number of samples with closure times above cut-off (n = 10) [2] | Number of samples with closure times above cut-off (n = 10) ([2]; listed as acetylsalicylic acid) | closure time relative to cut-off (FIG. 3, mean values) [2] | Number of samples with closure times above cut-off (n = 11) [3] | Number of samples with closure times above cut-off (n = 11) ([3]; listed as acetylsalicylic acid) | closure time relative to cut-off (FIG. 2, mean values) ([1]; citrated blood, 11 donors) | platelet aggregation reduced compared with untreated samples (mean) [4] [%] | closure time relative to cut-off (FIG. 2, mean values) ([3]; citrated blood, 11 donors) | Sensitivity (share of 13 patients with detected antithrombotic effect) [5] [%] | Sensitivity (share of 13 patients with detected antithrombotic effect) (platelet aggregation [6]) [%] | Sensitivity (share of 13 patients with detected antithrombotic effect) [7] [%] | number of patients in whom the antithrombotic effect could be detected (of 13) [7] | Sensitivity (share of 13 patients with detected antithrombotic effect) (platelet aggregation [8]) [%] |
| --- | --- | --- | --- | --- | --- | --- | --- | --- | --- | --- | --- | --- | --- | --- |
| CC(=O)Oc1ccccc1C(=O)O [Acetylsalicylic acid, acetylsalicylic acid] | 8 | 0 | none | no prolongation of closure times | 1 | one |  |  |  |  |  |  |  |  |
| CNc1ncnc2c1ncn2[C@H]1C[C@H](OP(=O)(O)O)[C@@H](COP(=O)(O)O)O1.N.N [MRS 2179, 2′-deoxy-N6-methyladenosine-3′,5′-bisphosphate, diammonium salt] |  | 10 |  | closure times that lie significantly above the reference value (cut-off) |  |  |  |  |  |  |  |  |  |  |
| CNc1nc(Cl)nc2c1ncn2CC(COC(=O)C(C)(C)C)COC(=O)C(C)(C)C [MRS 2395, 2,2-dimethyl-propionic acid 3-(2-chloro-6-methylaminopurin-9-yl)-2-(2,2-dimethyl-propionyloxymethyl)-propyl ester] | 4 | 9 |  | closure times that lie significantly above the reference value (cut-off) | 9 |  | lie to a greater extent below the upper reference value (cut-off) | 27 | closure times that lie significantly above the upper reference value (cut-off) |  |  |  |  |  |
| COC(=O)[C@H](c1ccccc1Cl)N1CCc2sccc2C1 [clopidogrel] |  |  |  |  |  |  |  |  |  | 46 | 69 | 77 | 10 | 62 |
